# Source: PubChem BioAssay (NCI)
#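 96-well plates; 48 h exposure; 5 concentrations. Endpoints by linear interpolation between flanking doses. Not reached: highest tested concentration assigned. TGI marks complete inhibition of growth.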
# Tests used:
# Assay in all cases: DTP human tumour cell line panel, 48 h
# [1] = system: 786-0 renal
# [2] = system: BT-549 breast
# [3] = system: HCT-116 colon
# [4] = system: HOP-62 NSCLC
# [5] = system: HS 578T breast
# [6] = system: IGROV1 ovarian
# [7] = system: MALME-3M melanoma
# [8] = system: NCI-H460 lung
# [9] = system: OVCAR-3 ovarian
# [10] = system: U251 CNS
Compound,TGI [1],TGI [2],TGI [3],TGI [4],TGI [5],TGI [6],TGI [7],TGI [8],TGI [9],TGI [10]
C[Si](C)(C)C1=C([Si](C)(C)C)C(Cl)(Cl)C1=O,10 µM,16.1 µM,7.02 µM,41.4 µM,55.7 µM,16.1 µM,4.22 µM,32.2 µM,8.15 µM,11.3 µM
CCc1nc2ccc(NCCN(C)C)c3c(=O)c4ccccc4n1c23,7.66 µM,21.2 µM,6.26 µM,5.12 µM,5.94 µM,4.82 µM,7.47 µM,3.07 µM,4.45 µM,12.1 µM
CC(=O)N1CCn2c1nc1cc(Cl)ccc12,> 100 µM,> 100 µM,> 100 µM,40 µM,> 100 µM,> 100 µM,> 100 µM,> 100 µM,> 100 µM,> 100 µM
CCN(CC)c1ccc2cc(C(=O)Nc3ccccn3)c(=N)oc2c1,> 100 µM,> 100 µM,> 100 µM,52.1 µM,88.5 µM,> 100 µM,> 100 µM,> 100 µM,> 100 µM,> 100 µM
CNc1ncc(-c2nnnn2-c2ccccc2)c(CN(C)C)n1,> 100 µM,> 100 µM,> 100 µM,> 100 µM,> 100 µM,> 100 µM,> 100 µM,> 100 µM,> 100 µM,> 100 µM
CC(=N\N)/C(C)=N/N=C(C)/C(C)=N/N=C(C)/C(C)=N/N,> 100 µM,> 100 µM,> 100 µM,> 100 µM,> 100 µM,> 100 µM,> 100 µM,> 100 µM,> 100 µM,> 100 µM
C[N+]1(CCN[N+]2(C)CCCCC2)CCc2ccccc2C1 (stereo not given),> 100 µM,> 100 µM,> 100 µM,> 100 µM,> 100 µM,> 100 µM,> 100 µM,> 100 µM,> 100 µM,> 100 µM
C(=C\N1CCCCC1)/c1nnnn1-c1ccccc1,> 100 µM,> 100 µM,> 100 µM,> 100 µM,49.4 µM,82.8 µM,> 100 µM,> 100 µM,90.6 µM,80.3 µM
COc1ccccc1C[C@@H]1OC2(C=CC(=O)C=C2)O[C@H]1Cc1ccccc1OC,4.29 µM,11.5 µM,2.32 µM,15.4 µM,29.3 µM,13.6 µM,21.3 µM,> 50 µM,18.9 µM,19.4 µM
CCOC(=O)Cc1nc2c(N)ncnc2n1C1OC(COC(C)=O)C(OC(C)=O)C1OC(C)=O (stereo not given),> 100 µM,> 100 µM,> 100 µM,> 100 µM,> 100 µM,> 100 µM,> 100 µM,> 100 µM,> 100 µM,> 100 µM
COc1cc2nc(-c3cccs3)[nH]c(=O)c2cc1OC,> 100 µM,> 100 µM,> 100 µM,> 100 µM,> 100 µM,> 100 µM,> 100 µM,> 100 µM,> 100 µM,> 100 µM
NC(Cc1ccc(S(=O)(=O)O)cc1)C(=O)NC(Cc1ccc(S(=O)(=O)O)cc1)C(=O)O (stereo not given),> 100 µM,> 100 µM,> 100 µM,> 100 µM,> 100 µM,> 100 µM,> 100 µM,> 100 µM,> 100 µM,> 100 µM
CC(=O)Oc1ccc(/C=C/C(=O)O[C@@H](C(=O)O)[C@@H](OC(=O)/C=C/c2ccc(OC(C)=O)c(OC(C)=O)c2)C(=O)O)cc1OC(C)=O,> 100 µM,> 100 µM,> 100 µM,> 100 µM,> 100 µM,> 100 µM,> 100 µM,> 100 µM,> 100 µM,> 100 µM
S=C(Nc1ccc2cn[nH]c2c1)Nc1ccc2cn[nH]c2c1,> 100 µM,> 100 µM,> 100 µM,> 100 µM,> 100 µM,> 100 µM,> 100 µM,> 100 µM,> 100 µM,> 100 µM
C/C1=C\C=C(\C(C)C)CC/C(C(=O)O)=C\CC/C(C)=C/CC1,65.9 µM,79.9 µM,29.8 µM,48 µM,> 100 µM,> 100 µM,52.2 µM,34.5 µM,31.4 µM,30.5 µM
CCN(CC)c1ccc(/C=C/C=C2C(=O)NC(=S)NC2=O)cc1,> 100 µM,> 75.4 µM,> 100 µM,47.9 µM,> 53.7 µM,> 100 µM,> 100 µM,> 100 µM,> 72.6 µM,> 80.8 µM
CN(C)c1cc[n+](-c2nc(/N=C(\[O-])C(F)(F)F)nc3c2ncn3C2CC(O)C(CO)O2)cc1 (stereo not given),> 100 µM,> 100 µM,> 100 µM,> 100 µM,> 100 µM,> 100 µM,> 100 µM,> 100 µM,> 100 µM,> 100 µM
